Earlier results, collected in patent US9090495B2, “Slow release tablet composition for treating industrial water systems” (AMSA, Inc., priority 2009, dated 2015).

Experiments:
[1] = typical cooling tower system; composition of U.S. Pat. No. 4,816,061
[2] = alkaline pH, such as pH~9, industrial water system conditions

| SMILES | Duration of effectiveness of a typical dose [1] | Time to degradation [2] |
| --- | --- | --- |
| CCCCCCCCCCSCCN [n-decylthioethylamine] | 1 to 1.5 days | – |
| N#CC(Br)(Br)C(N)=O [DBNPA, 2,2-dibromo-3-nitrilopropionamide] | – | a few minutes |
